US20150368617A1, “METHOD FOR FORMING ENDOTHELIAL CELLS” (Korea Advanced Institute of Science and Technology (KAIST), priority 2012, published 2015)

Legend:
αMHC GFP+CMs = test: Sorted αMHC-GFP+ CMs in feeder-free condition; format: cell-based, mouse; conditions: Y27632 10 μM
Description: Analysis and sorting for CMs were performed at day 10.5. We harvested differentiated Flk1+ MPCs on OP9 cells with 0.25% trypsin-EDTA or dissociation buffer (Invitrogen). Cardiac troponin-T (cTnT)+ and ┌ smooth muscle actin (SMA)+ cells were analyzed after permeabilization using Cytofix/Cytoperm solution (BD Biosciences) for 15 min. After permeabilization, the cells were incubated for 30 min with anti-mouse cTnT (NeoMarkers) monoclonal antibody. After washing in 10% Perm/Wash buffer (BD Biosciences), the cells were incubated for 10 min with Alexa Fluor® 647 anti-mouse IgG (Invitrogen). After washing in 10% Perm/Wash buffer (BD Biosciences), the cells were incubated for 30 min with Cy3-conjugated anti-┌ SMA (clone 1A4, Sigma). We sorted out CMs using ┌ MHC GFP. Sorted Flk1+ MPCs on OP9 cells were harvested with 0.25% trypsin-EDTA or dissociation buffer (Invitrogen) and cells were washed using phosphate buffered saline/10% FBS twice. Dead cells were excluded using 7-aminoactinomycin D (Invitrogen). Then, we sorted out ┌ MHC GFP+CMs and plated on to 0.1% gelatin coated dish in the differentiation medium. The medium was changed every 2 days. Analyses and sorting were performed by FACS Aria II (Beckton Dickinson). Data were analyzed using FlowJo Version 7.5.4 software (TreeStar). […]

Flk1+ MPCs = test: Differentiation of MCs from Flk1+ MPCs, FACS of αSMA+ MCs; format: cell-based, mouse; conditions: Y27632 10 μM; ML7 5 μM
Description: FIGS. 11A-11D. ROCK suppression promotes the differentiation of ECs through PTEN-Akt signaling and inhibits the differentiation of MCs through MyPT-MLC signaling. (FIG. 11A) Representative FACS analysis of CD31+/CD144+ ECs incubated with 0.1% DMSO or LY294002 (20┌ M; LY) in the presence of PBS (Control) or Y27632 (10┌ M; Y). (FIG. 11B) % of CD31+/CD144+ EC population. Each group, n=3. *p<0.01 versus 0. Each group, n=3. *p<0.01 versus DMSO; ^#p<0.01 versus Y27632. (FIG. 11C) Representative FACS analysis of ┌ SMA+MCs or CD144+ ECs incubated with 0.1% DMSO or ML7 (5 ┌ M) in the presence of PBS (Control) or Y27632 (10┌ M). (FIG. 11D) % of ┌ SMA+MC population. Each group, n=3. *p<0.01 versus 0. Each group, n=3. *p<0.01 versus DMSO. n.s. represents statistically non-significant.
Analysis and sorting for CMs were performed at day 10.5. We harvested differentiated Flk1+ MPCs on OP9 cells with 0.25% trypsin-EDTA or dissociation buffer (Invitrogen). Cardiac troponin-T (cTnT)+ and ┌ smooth muscle actin (SMA)+ cells were analyzed after permeabilization using Cytofix/Cytoperm solution (BD Biosciences) for 15 min. After permeabilization, the cells were incubated for 30 min with anti-mouse cTnT (NeoMarkers) monoclonal antibody. […] Data were analyzed using FlowJo Version 7.5.4 software (TreeStar).

Compound: C[C@@H](N)[C@H]1CC[C@H](C(=O)Nc2ccncc2)CC1 [Y27632]
- self-beating CMs compared to control (αMHC GFP+CMs; day 12.5): much more self-beating CMs
- area of self-beating CMs compared control (αMHC GFP+CMs; day 14.5, confluent state): ~2.8 fold
- reduction of αSMA+MC population (Flk1+ MPCs): ~83%
